Data reported in patent US9737517B2, “Pharmaceutical use of hexahydro-dibenzo[a,g]quinolizine compounds” (SHANGHAI INSTITUTE OF MATERIA MEDICA, CHINESE ACADEMY OF …, priority 2013, dated 2017).

How the values were obtained:
α1B-AR [1] = target: T1, α1B-AR (Homo sapiens, UniProt P35368); assay: Calcium mobilization (Fluo-4) antagonism of phenylephrine in HEK293 cells expressing α1B-AR/Gα16; type: cell-based; conditions: phenylephrine 30 nM
T1 construct: expressed in transfected cells; host or cells: HEK293
T1 sequence (P35368 1-520): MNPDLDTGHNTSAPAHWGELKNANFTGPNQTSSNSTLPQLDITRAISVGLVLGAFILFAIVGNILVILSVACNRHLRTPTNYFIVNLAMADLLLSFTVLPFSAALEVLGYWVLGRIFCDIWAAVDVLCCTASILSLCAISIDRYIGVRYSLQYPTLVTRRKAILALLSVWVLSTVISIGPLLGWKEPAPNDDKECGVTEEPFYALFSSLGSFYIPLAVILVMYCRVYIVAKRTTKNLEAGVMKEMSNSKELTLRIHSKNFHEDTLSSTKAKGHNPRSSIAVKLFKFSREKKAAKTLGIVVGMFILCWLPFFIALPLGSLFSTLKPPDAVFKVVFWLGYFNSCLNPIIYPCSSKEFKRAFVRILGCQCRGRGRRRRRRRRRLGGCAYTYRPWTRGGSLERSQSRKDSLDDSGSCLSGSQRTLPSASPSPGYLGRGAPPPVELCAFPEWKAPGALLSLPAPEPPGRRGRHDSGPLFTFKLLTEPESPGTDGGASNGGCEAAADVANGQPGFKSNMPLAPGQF
Experimental: (§1) HEK293 cells stably expressing α1A-AR/Gα16, α1B-AR/Gα16, α1D-AR/Gα16 were seeded in a 96-well plate, and cultured for 24 hours. Then the medium was removed and 40 μL Hank's balanced salt solution (HBSS: containing 5.4 mM KCl, 0.3 mM Na2HPO4, 0.4 mM KH2PO4, 4.2 mM NaHCO3, 1.3 mM CaCl2, 0.5 mM MgCl2, 0.6 mM MgSO4, 137 mM NaCl, 5.6 mM D-glucose, and 250 μM sulfinpyrazone, pH 7.4) containing 2 μM Fluo-4 AM was added into each well, and incubated at 37° C. for 45 min. Dye was removed and 50 μL of HBSS containing either test compound or 1% DMSO (negative control) was added. After incubation at room temperature for 10 min, Flex Station 3 microplate reader was used to read the value. At specified time points, 25 μL of agonist (phenylephrine, final concentration 30 nM) was dispensed into the well automatically using the reader and fluorescence intensity change of dye caused by intracellular calcium concentration change was detected at an excitation wavelength of 485 nm and an emission wavelength of 525 nm.
(§2) After incubation with different drugs, the reaction rate of cells to 1-AR agonist phenylephrine was calculated as follows: Reaction rate %=(D−B)/(S−B)*100%;
(§3) The reaction rate of the same drug at different doses was tested using GraphPad Prism software by non-linear regression analysis, and the dose-response curve was obtained and IC50 values was measured. Data were obtained from three separate experiments, and each experiment included three duplicate wells.

α1D-AR = target: T2, α1D-AR (Homo sapiens, UniProt P25100); assay: Calcium mobilization (Fluo-4) antagonism of phenylephrine in HEK293 cells expressing α1D-AR/Gα16; type: cell-based; conditions: phenylephrine 30 nM
T2 construct: expressed in transfected cells; host or cells: HEK293
T2 sequence (P25100 1-572): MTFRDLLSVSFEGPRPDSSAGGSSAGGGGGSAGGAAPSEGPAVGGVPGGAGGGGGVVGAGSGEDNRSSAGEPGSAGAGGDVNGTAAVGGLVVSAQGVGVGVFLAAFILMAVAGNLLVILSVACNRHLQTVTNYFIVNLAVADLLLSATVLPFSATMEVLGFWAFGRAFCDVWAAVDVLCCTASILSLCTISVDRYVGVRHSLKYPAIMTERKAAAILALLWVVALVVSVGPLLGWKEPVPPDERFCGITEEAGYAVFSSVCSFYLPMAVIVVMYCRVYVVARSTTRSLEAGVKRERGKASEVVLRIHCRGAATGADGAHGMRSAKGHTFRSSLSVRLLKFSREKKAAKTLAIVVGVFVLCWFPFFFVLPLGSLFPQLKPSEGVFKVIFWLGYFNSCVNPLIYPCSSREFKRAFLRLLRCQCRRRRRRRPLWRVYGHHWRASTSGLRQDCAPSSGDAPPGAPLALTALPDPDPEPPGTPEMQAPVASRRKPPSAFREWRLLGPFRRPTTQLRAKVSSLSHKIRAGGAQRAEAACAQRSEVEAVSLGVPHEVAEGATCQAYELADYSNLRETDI
Experimental: as §1, §2, §3

α1A-AR [2] = target: T3, α1A-AR (Homo sapiens, UniProt P35348); assay: Calcium mobilization (Fluo-4) antagonism of phenylephrine in HEK293 cells expressing α1A-AR/Gα16; type: cell-based; conditions: for IC50: HEK293 α1A-AR/Gα16, calcium mobilization, phenylephrine 30 nM; for α1B/α1A: ratio of cell IC50 values, calcium mobilization
T3 construct: expressed in transfected cells; host or cells: HEK293
T3 sequence (P35348 1-466): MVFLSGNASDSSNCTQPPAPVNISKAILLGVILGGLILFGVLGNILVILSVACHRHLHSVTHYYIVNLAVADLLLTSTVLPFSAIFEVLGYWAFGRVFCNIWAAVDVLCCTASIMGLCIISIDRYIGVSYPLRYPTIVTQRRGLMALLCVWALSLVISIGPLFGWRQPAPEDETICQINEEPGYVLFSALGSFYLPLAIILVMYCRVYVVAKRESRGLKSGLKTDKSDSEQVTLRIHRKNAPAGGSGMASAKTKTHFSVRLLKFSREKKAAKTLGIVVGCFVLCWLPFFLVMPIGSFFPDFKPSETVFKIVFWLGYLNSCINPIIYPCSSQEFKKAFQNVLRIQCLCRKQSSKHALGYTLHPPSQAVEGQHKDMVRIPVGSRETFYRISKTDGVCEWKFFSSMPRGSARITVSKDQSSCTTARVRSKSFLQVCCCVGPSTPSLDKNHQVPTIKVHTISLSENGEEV
Experimental: as §1, §2, §3

[3] = tested on: vascular smooth muscle (thoracic aorta); assay: In vitro vascular smooth muscle experiment (norepinephrine-induced contraction of thoracic aorta rings); set-up: species or system Wistar rats; conditions: isolated rat thoracic aorta rings, norepinephrine 10^−7 mol/L
Experimental: Healthy male Wistar rats were hit head to cause faint. The abdominal cavity was quickly cut, and the thoracic aorta was taken out. The attached tissue was separated and cut into 2-3 mm vascular rings. The experiment was carried out in the same manner as in urethral smooth muscle experiment. The resting tension applied was 1 g, and when baseline was stabilized, norepinephrine was added with a final concentration of 10^−7 mol/L in bath tube. When the contraction curve reached the highest point, rinse was performed immediately to recover to baseline levels. When baseline was stabilized, test drug with different concentrations was added respectively, and incubated 3-5 mins. 20 μL 1×10^−4 M norepinephrine was added with a final concentration of 10^−7 mol/L in bath tube, and contraction curve was recorded.

urethra smooth muscle = assay: In vitro urethra smooth muscle experiment (norepinephrine-induced contraction); set-up: species or system Wistar rats; Urethra inhibition rate (%): concentration or dose not given beside the values; conditions: for IC50: isolated rat prostatic urethra, norepinephrine 3×10^−4 mol/L; for Urethra inhibition rate (%): isolated rat urethra, norepinephrine-induced contraction; for Aorta/Urethra: selectivity ratio of IC50 values, isolated rat tissues
Experimental: Healthy male Wistar rats were hit head to cause faint. The abdominal cavity and the pubic symphysis was quickly cut so as to quickly remove the prostatic urethra, which was immediately placed into a dish filled with 4° C. Kerbs-Henseleit solution (K-H solution). The surrounding tissue were carefully separated, and muscle strips about 3-5 mm were obtained, and the lower end was fixed onto a 20 mL of thermostatic bath and the upper end was connected onto a pressure transducer. Nutrient liquid was K-H solution, and carbogen (95% oxygen and 5% carbon dioxide) was aerated, and the bath temperature was 37° C., and resting tension applied was 0.5 g. The nutrient liquid was replaced every 6-8 mins. Until baseline stabilized, norepinephrine was added with a final concentration of 3×10^−4 mol/L in bath tube. When the contraction curve reached the highest point, it was rinsed immediately to recover to baseline levels. When baseline was stabilized, test drug with different concentrations was added respectively, and incubated 3-5 mins. 60 μL 1×10^−1 M norepinephrine was added with a final concentration of 3×10^−4 mol/L in bath tube, and the contraction curve was recorded.

α1A-AR [4] = target: T3, α1A-AR; assay: Tag-lite receptor binding assay, HEK293 cells expressing SNAP-α1A-AR
Excerpt: (§4) Tag-lite assay was used to study receptor binding activity. Tag-lite assay was a combination of SNAP-Tag and HTRF technology, and was used to analyze surface receptors on live cell. SNAPs were small tag fusion proteins which could irreversibly, specifically and covalently bind to substrates via benzylmethyl, and the substrates were benzylmethyl guanine and benzylmethyl cytosine. Substrates and various dyes formed derivatives, and through covalent reaction, the dye was labeled onto SANPs. Plasmid was constructed using pSNAP and α1-AR encoding gene. After transfection into cells, N-terminal fusion protein of SNAP and α1-AR was expressed. The substrate and HTRF fluorescent dye (donor compound Lumi4-Tb) formed a derivative which reacted with SANP-α1-AR fusion protein so that Tb was labeled onto α1-AR. After adding acceptor fluorescent dye-labeled ligand, the receptor and ligand binding experiment was performed.
(§5) HEK293 cells stably expressing SNAP-α1A-AR, SNAP-α1B-AR, SNAP-α1D-AR were seeded in 3 cm dishes, and cultured for 24 hours. 100 nM Tag-lite SNAP Lumi4Tb was added and incubated for 1 h in an incubator. Cells were detached and washed with a labeling buffer for 4 times, and then was added into a 384-well plate in a volume of 10 μL per well. […] After incubation at room temperature for 1 hour, fluorescence intensity changes caused by cell receptor and ligand changes were detected using 665 nm (acceptor) and 620 nm (donor) at same time.
(§6) After incubation with different drugs, the reaction rate of cells to 1-AR fluorescein-labeled known ligand was calculated as follows: Reaction rate %=(D−B)/(S−B)*100%
(§7) The reaction rate of the same drug at different doses was tested using GraphPad Prism software by non-linear regression analysis, and the dose-response curve was obtained and Ki values was measured. Data were obtained from three separate experiments, and each experiment includes three duplicate wells.

α1B-AR [5] = target: T1, α1B-AR; assay: Tag-lite receptor binding assay, HEK293 cells expressing SNAP-α1B-AR
Excerpt: as §4, §5, §6, §7

| Structure (SMILES) | IC50 (α1B-AR [1]) | IC50 (α1D-AR) | IC50 (α1A-AR [2]) | α1B/α1A (α1A-AR [2]) | IC50 [3] | IC50 (urethra smooth muscle) | Urethra inhibition rate (%) (urethra smooth muscle) | Aorta/Urethra (urethra smooth muscle) | IC50 (α1A-AR [4]; Tag-lite binding, HEK293 SNAP-α1A-AR) | α1B/α1A (α1A-AR [4]; ratio of Tag-lite binding values) | IC50 (α1B-AR [5]) |
| --- | --- | --- | --- | --- | --- | --- | --- | --- | --- | --- | --- |
| COc1cc2c(cc1OC)CN1CCc3cc(OC)c(OC)cc3C1C2 (centres unmarked) [DC037001] | 174 nM | 8710 nM | 123 nM | 1.4 | – | – | – | – | – | – | – |
| COc1cc2c(cc1OC)[C@@H]1Cc3cc4c(cc3CN1CC2)OCO4 [DC037005] | 1650 nM | 2950 nM | 160 nM | 10.3 | – | – | – | – | – | – | – |
| COc1cc2c(cc1OC)C1Cc3cc4c(cc3CN1CC2)OCO4 (centres unmarked) [DC037008] | 68800 nM | 2120 nM | 552 nM | 125 | – | – | – | – | – | – | – |
| COc1cc2c(cc1OC)[C@@H](C)N1CCc3cc(OC)c(OC)cc3[C@@H]1C2 [DC037002] | 17200 nM | 2520 nM | 502 nM | 34.2 | – | – | – | – | – | – | – |
| COc1cc2c(cc1OC)[C@@H]1Cc3cc(C)cc(C)c3CN1CC2 [DC037011] | 34300 nM | 2640 nM | 532 nM | 64.4 | – | – | – | – | – | – | – |
| COc1cc2c(cc1OCC(F)F)C[C@H]1c3cc4c(cc3CCN1C2)OCO4 [DC037018] | – | – | – | – | 2210 nM | 147 nM | 61% | 61 | 0.95 nM | 51.2 | 48.6 nM |
| COc1cc2c(c(OC)c1OC)CN1CCc3cc4c(cc3[C@@H]1C2)OCO4 [DC037010] | 1200 nM | 2560 nM | 238 nM | 5.0 | – | – | – | – | – | – | – |
| COc1cc2c(cc1OC)CN1CCc3cc(OC)c(OC)cc3[C@@H]1C2 [DC037003] | 249000 nM | 2480 nM | 91.3 nM | 2731 | – | – | – | – | – | – | – |
| COc1cc2c(cc1OCc1ccccc1)CN1CCc3cc4c(cc3[C@@H]1C2)OCO4 [DC037014] | 35900 nM | 1340 nM | 303 nM | 118.5 | – | – | – | – | – | – | – |
| COc1cc2c(cc1OC)CN1CCc3cc4c(cc3C1C2)OCO4 (centres unmarked) [DC037012] | 7520 nM | 242 nM | 257 nM | 29.2 | – | – | – | – | – | – | – |
| COc1ccc2c(c1)CCN1Cc3cc(OC)c(OC)cc3C[C@@H]21 [DC037004] | 189 nM | 422 nM | 93.9 nM | 2.0 | – | – | – | – | – | – | – |
| CCOc1ccccc1OCCN[C@H](C)Cc1ccc(OC)c(S(N)(=O)=O)c1 [Tamsulosin, reference compound] | 3.08 nM | 0.18 nM | – | – | 0.25 nM | 0.47 nM | 82% | 0.53 | – | – | 0.16 nM |
| COc1ccc(OC)c2c1C[C@H]1c3cc4c(cc3CCN1C2)OCO4 [DC037007] | 13000 nM | 75.8 nM | 969 nM | 13.4 | – | – | – | – | – | – | – |
| COc1cc2c(cc1O)[C@@H]1Cc3cc4c(cc3CN1CC2)OCO4 [DC037013] | 4310 nM | 263 nM | 268 nM | 16.1 | – | – | – | – | – | – | – |
